Test results: ChEMBL document CHEMBL5096210, “Discovery of Betulinic Acid Derivatives as Potent Intestinal Farnesoid X Receptor Antagonists to Ameliorate Nonalcoholic Steatohepatitis” (J Med Chem, 2022)
Activity calls are given as the source filed them.

What was measured:
[1] = biological target: T1, Bile acid receptor (Mus musculus) (UniProt Q60641); test: In vivo antagonist activity against FXR in mouse assessed as stimulation of organoids growth in presence of FXR agonist; type: functional
T1 sequence (whole entry): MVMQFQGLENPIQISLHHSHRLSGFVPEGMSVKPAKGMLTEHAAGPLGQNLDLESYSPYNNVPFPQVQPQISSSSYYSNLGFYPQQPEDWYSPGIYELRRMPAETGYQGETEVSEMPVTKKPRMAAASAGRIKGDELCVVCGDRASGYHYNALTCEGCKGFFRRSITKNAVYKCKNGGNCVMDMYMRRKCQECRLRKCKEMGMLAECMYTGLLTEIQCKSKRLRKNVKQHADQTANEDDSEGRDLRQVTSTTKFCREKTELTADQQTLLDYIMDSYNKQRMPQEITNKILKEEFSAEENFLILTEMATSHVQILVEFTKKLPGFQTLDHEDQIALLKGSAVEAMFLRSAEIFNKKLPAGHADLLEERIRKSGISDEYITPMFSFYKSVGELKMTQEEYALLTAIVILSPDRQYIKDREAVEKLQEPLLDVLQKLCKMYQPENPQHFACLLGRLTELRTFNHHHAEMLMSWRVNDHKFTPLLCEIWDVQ

[2] = biological target: T1, Bile acid receptor (Mus musculus); test: In vivo antagonist activity against FXR in mouse assessed as reduction in Shp level in presence of GW4064; type: functional
Mus musculus [3] = test: Anti-NASH activity in GAN-induced […] mouse assessed as reduction in body weight at 10 mg/kg, IG measured after 12 weeks; type: functional, organism-based
Mus musculus [4] = test: Anti-NASH activity in GAN-induced […] mouse assessed as reduction in fat/lean index at 10 mg/kg, IG measured after 12 weeks; type: functional, organism-based
Mus musculus [5] = organism: Mus musculus; test: Anti-NASH activity in GAN diet-induced […] mouse assessed as reduction in Dgat2 level; type: functional, organism-based
Mus musculus [6] = organism: Mus musculus; test: Anti-NASH activity in GAN diet-induced […] mouse assessed as reduction in liver weight; type: functional, organism-based
Mus musculus [7] = organism: Mus musculus; test: Anti-NASH activity in GAN diet-induced […] mouse assessed as reduction in liver index; type: functional, organism-based
Mus musculus [8] = organism: Mus musculus; test: Anti-NASH activity in GAN diet-induced […] mouse assessed as reduction in AST level; type: functional, organism-based
Liver [9] = test: Anti-NASH activity in GAN diet-induced […] mouse liver assessed as reduction in hepatocyte ballooning by H and E staining based analysis; type: functional, cell-based
Liver [10] = test: Anti-NASH activity in GAN diet-induced […] mouse liver assessed as reduction in hepatocyte fat by H and E staining based analysis; type: functional, cell-based
Liver [11] = test: Anti-NASH activity in GAN diet-induced […] mouse liver assessed as reduction in macrosteatosis by Oil Red O staining based assay; type: functional
Liver [12] = test: Anti-NASH activity in GAN diet-induced […] mouse liver assessed as reduction in hepatocyte ballooning by Sirius red staining based analysis; type: functional, cell-based
Liver [13] = test: Anti-NASH activity in GAN diet-induced […] mouse liver assessed as reduction in hepatocyte fat by Sirius red staining based analysis; type: functional, cell-based
Mus musculus [14] = organism: Mus musculus; test: Anti-NASH activity in GAN diet-induced […] mouse assessed as reduction in Fabp2 mRNA expression level; type: functional, organism-based
Mus musculus [15] = organism: Mus musculus; test: Anti-NASH activity in GAN diet-induced […] mouse assessed as reduction in Plin2 mRNA expression level; type: functional, organism-based
Mus musculus [16] = organism: Mus musculus; test: Anti-NASH activity in GAN diet-induced […] mouse assessed as reduction in cleaved caspase 1 level; type: functional, organism-based
Mus musculus [17] = organism: Mus musculus; test: Anti-NASH activity in GAN diet-induced […] mouse assessed as reduction in Tgf-beta level; type: functional, organism-based
Mus musculus [18] = organism: Mus musculus; test: Anti-NASH activity in GAN diet-induced […] mouse assessed as reduction in Col1a1 level; type: functional, organism-based
Mus musculus [19] = organism: Mus musculus; test: Anti-NASH activity in GAN diet-induced […] mouse assessed as suppression of FXR expression; type: functional, organism-based
Mus musculus [20] = organism: Mus musculus; test: Anti-NASH activity in GAN diet-induced […] mouse assessed as upregulation CYP7A1 protein by Western blot analysis; type: functional, organism-based
Mus musculus [21] = organism: Mus musculus; test: Anti-NASH activity in GAN diet-induced […] mouse assessed as increase in FXR protein by Western blot analysis; type: functional, organism-based
Mus musculus [22] = organism: Mus musculus; test: Anti-NASH activity in GAN diet-induced […] mouse assessed as increase in Bsep mRNA level; type: functional, organism-based
Mus musculus [23] = organism: Mus musculus; test: Anti-NASH activity in GAN diet-induced […] mouse assessed as reduction in bile acid loss in cecum content; type: functional, organism-based

Measured: Activity

CCCC(=O)O[C@@H]1CC[C@]2(C)[C@H]3CC[C@@H]4[C@H]5[C@H](C(C)C)CC[C@]5(C(=O)NCC(=O)O)CC[C@@]4(C)[C@]3(C)CC[C@H]2C1(C)C
active: all assays above
